Data taken from the NIST ThermoML archive (doi:10.1021/je2007605).

How the values were obtained:
[1] = for Normal melting temperature: DTA
[2] = Molar enthalpy of transition or fusion; settings: Crystal; DSC

COC(=O)c1ccc(N(C)C)cc1 [methyl 4-(dimethylamino)benzoate]
vapor or sublimation pressure [kPa], [1]
Settings	Crystal	Liquid
311.12 K, Calculated from knudsen effusion weight loss	8.2e-05	–
313.19 K, Calculated from knudsen effusion weight loss	0.000104	–
315.17 K, Calculated from knudsen effusion weight loss	0.000131	–
317.11 K, Calculated from knudsen effusion weight loss	0.000166	–
319.18 K, Calculated from knudsen effusion weight loss	0.000211	–
323.12 K, Calculated from knudsen effusion weight loss	0.000332	–
324.96 K, Closed cell (Static) method	0.00043	–
325.18 K, Calculated from knudsen effusion weight loss	0.000421	–
326.93 K, Closed cell (Static) method	0.00053	–
327.16 K, Calculated from knudsen effusion weight loss	0.000525	–
328.93 K, Closed cell (Static) method	0.00068	–
329.11 K, Calculated from knudsen effusion weight loss	0.000662	–
330.9 K, Closed cell (Static) method	0.00084	–
331.17 K, Calculated from knudsen effusion weight loss	0.000829	–
332.91 K, Closed cell (Static) method	0.00105	–
333.16 K, Calculated from knudsen effusion weight loss	0.001019	–
334.88 K, Closed cell (Static) method	0.0013	–
336.89 K, Closed cell (Static) method	0.00161	–
338.85 K, Closed cell (Static) method	0.00199	–
340.86 K, Closed cell (Static) method	0.00246	–
342.81 K, Closed cell (Static) method	0.00298	–
344.83 K, Closed cell (Static) method	0.00365	–
346.78 K, Closed cell (Static) method	0.00447	–
348.79 K, Closed cell (Static) method	0.00542	–
350.75 K, Closed cell (Static) method	0.00655	–
352.74 K, Closed cell (Static) method	0.00799	–
352.78 K, Closed cell (Static) method	–	0.01105
354.73 K, Closed cell (Static) method	0.0096	–
354.77 K, Closed cell (Static) method	–	0.01276
356.72 K, Closed cell (Static) method	0.01168	–
356.75 K, Closed cell (Static) method	–	0.01475
358.69 K, Closed cell (Static) method	0.01403	–
358.73 K, Closed cell (Static) method	–	0.01697
360.68 K, Closed cell (Static) method	0.01658	–
360.72 K, Closed cell (Static) method	–	0.01953
362.67 K, Closed cell (Static) method	0.01987	–
362.7 K, Closed cell (Static) method	–	0.02236
364.65 K, Closed cell (Static) method	0.02318	–
364.68 K, Closed cell (Static) method	–	0.02563
366.61 K, Closed cell (Static) method	0.02725	–
366.67 K, Closed cell (Static) method	–	0.02928
368.66 K, Closed cell (Static) method	0.03255	0.03341
370.64 K, Closed cell (Static) method	–	0.03797
372.62 K, Closed cell (Static) method	–	0.04321
374.62 K, Closed cell (Static) method	–	0.04885
376.56 K, Closed cell (Static) method	–	0.05553
378.53 K, Closed cell (Static) method	–	0.0627
380.52 K, Closed cell (Static) method	–	0.07058
382.5 K, Closed cell (Static) method	–	0.07972
384.49 K, Closed cell (Static) method	–	0.08949
386.42 K, Closed cell (Static) method	–	0.1006
388.46 K, Closed cell (Static) method	–	0.1126
390.44 K, Closed cell (Static) method	–	0.1259

Settings	Normal melting temperature [°C]
[1], Crystal	98.14

Settings	Molar enthalpy of transition or fusion [kcal/mol]
[2]	5.59

COC(=O)c1ccc(C)cc1 [methyl 4-methylbenzoate]
[1], Closed cell (Static) method
Settings	vapor or sublimation pressure [kPa]
269.27 K, Crystal	0.0004
271.21 K, Crystal	0.00052
273.18 K, Crystal	0.00067
275.19 K, Crystal	0.00087
277.14 K, Crystal	0.00112
279.16 K, Crystal	0.00145
281.08 K, Crystal	0.00184
283.07 K, Crystal	0.00235
285.08 K, Crystal	0.003
287.05 K, Crystal	0.00377
289.04 K, Crystal	0.00475
291.04 K, Crystal	0.00599
293.03 K, Liquid	0.01066
293.04 K, Crystal	0.00745
295.02 K, Crystal	0.00939
295.08 K, Liquid	0.0127
297.03 K, Crystal	0.01167
297.05 K, Liquid	0.01498
299.02 K, Crystal	0.01451
299.04 K, Liquid	0.01755
300.98 K, Crystal	0.01795
301.03 K, Liquid	0.02057
303 K, Liquid	0.02404
305.03 K, Liquid	0.02784
306.98 K, Liquid	0.03242
308.97 K, Liquid	0.03825
310.97 K, Liquid	0.0434
312.95 K, Liquid	0.05065
314.97 K, Liquid	0.05815
316.99 K, Liquid	0.06735
318.9 K, Liquid	0.07685
320.95 K, Liquid	0.08945
322.94 K, Liquid	0.1009
324.92 K, Liquid	0.1171
326.96 K, Liquid	0.132
328.85 K, Liquid	0.151
330.92 K, Liquid	0.1689
332.84 K, Liquid	0.1934
334.91 K, Liquid	0.2162
336.82 K, Liquid	0.2454
338.88 K, Liquid	0.2748
340.75 K, Liquid	0.31
342.8 K, Liquid	0.3469
344.71 K, Liquid	0.3884
346.77 K, Liquid	0.4353
348.75 K, Liquid	0.484

Settings	Normal melting temperature [°C]
[1], Crystal	31.94

Settings	Molar enthalpy of transition or fusion [kcal/mol]
[2]	4.83
